Reference: US20230285570A1, “THERAPEUTICALLY USEFUL CURE-PRO MOLECULES FOR E3 LIGASE MEDIATED DEGRADATION OF PROTEINS, AND METHODS OF MAKING AND USING THEM” (CORNELL UNIVERSITY, priority 2020, published 2023)
Entries after “also recorded” stand apart in the source; their conditions may differ.

What was measured:
Type in all cases: cell-based
c-MYC [1] = biological target: T1, c-MYC (Homo sapiens, UniProt P01106); assay: CURE-PRO-mediated c-MYC degradation in MCF7 cells, WES (ProteinSimple); set-up: endogenous in cells
Method: (§1) WES Simple analysis was performed on WES system (ProteinSimple-Biotechne) according to the manufacturer's instructions. Total protein concentrations of cell lysates were determined by the Pierce BCA kit (Thermo Fisher). 3 μL of 0.3 μg/μL of the protein lysate was loaded onto a 12- to 230-kDa WES assay plate (ProteinSimple) where 300 nL sample was withdrawn through a capillary, subjected to electrophoretic separation of proteins by size, and followed by the simultaneous, HRP-based detection of proteins using the Anti-Rabbit Detection Module (Proteinsimple: #DM-001). The electropherograms were checked then the automatic peak detection was manually corrected if it was required.
Compounds were added at 1 μM-10 μM each. Standardized protein samples were electrophoresed and imaged as detected on a WES capillary electrophoresis instrument (Proteinsimple), as described above. c-MYC monomers, MYC-N5 (FIG. 94) and MYC-N2 (FIG. 95) (10058-F4 derivatives comprising diol linkers), and VHL ligands, 8297 and 8298 (VH-298 derivatives comprising boronic acid linkers) were combined in a 1:1 ratio.

c-MYC [2] = biological target: T1, c-MYC; assay: Summary of C-MYC degradation by CURE-PRO pairs, estimated from Western Blot or WES; set-up: endogenous in cells; host or cells: HT29
Method: (§2) Namalwa, Ramosm HeLa, MCF7, or HT29 HCT116 cells (2.5-3×10^6) were treated for 24 hours with the indicated compounds solubilized in DMSO. The cells were washed in ice-cold PBS and were then lysed in RIPA lysis buffer (150 mM NaCl, 5 mM EDTA, 1% NP-40, 0.5% sodium deoxycholate, 0.1% SDS, 50 mM Tris, pH 8.0.) with Roche protease inhibitor complete cocktail and phosphatase inhibitors (10 mM sodium fluoride, 10 mM sodium pyrophosphate, 1 mM sodium orthovanadate and 20 mM β-glycerophosphate). The total protein concentrations were determined by Bradford Protein Assay (Pierce) and 10-20 μg of protein was loaded onto 4-15% Tris-Glycine gradient gels (Biorad). After standard gel electrophoresis, the separated proteins were transferred to PVDF membrane by wet transfer. The immunoblots were then blocked for 1 hour in 5% skim milk in TBST or 5% BSA in TBST, according to manufacturer's instructions, before an overnight incubation at 4° C. with indicated antibodies and membranes. Membranes were then incubated with the appropriate horseradish peroxidase-conjugated secondary antibodies (1:5,000 dilution) for 1 h at room temperature and the bands were visualized using the Clarity Max Western ECL Substrate (Biorad) and the ChemiDoc Imaging System (Biorad). Signal was detected with ECL Western Blotting Substrate (Pierce) and X-ray film processed with a Konica SRX-101 X-ray film processor or captured by Bio-Rad's Chemidoc Imaging system.
as §1
A black check mark indicates efficacy of 30% to 70% or higher protein degradation.

Aiolos and Ikaros [3] = assay: Aiolos and Ikaros expression in Ramos cells, Western blot; details: monomer alone, 100 nM-10 μM, 24 h
Method: as §2
(§3) Namalwa (FIG. 78) or Ramos (FIG. 79) cells (5×10^6) were treated for 24 h with the compounds solubilized in DMSO. Compounds were added at 100 nM-10 μM each. Standardized protein samples were electrophoresed and imaged as described in the immunoblotting section above. FIGS. 78 and 79 depict the effects of the E3 ubiquitin ligase CURE-PRO monomer ligands (100 nM-10 μM, 24 h) targeting Cereblon on the expression of Aiolos and Ikaros, two downstream proteins that are known to be ubiquitinated and degraded after IMiDs bind to CRBN.

Aiolos and Ikaros [4] = assay: Aiolos and Ikaros expression in Namalwa cells, Western blot; details: monomer alone, 100 nM-10 μM, 24 h
Method: as §2, §3

BRD4 = BRD4 (Homo sapiens, UniProt O60885); assay: CURE-PRO-mediated BRD4 degradation in HeLa cells, WES capillary electrophoresis (ProteinSimple); set-up: endogenous in cells; host or cells: HeLa; details: co-dosed with CRBN ligand 8047, HeLa, 24 h, 100 nM-10 μM each
Method: All cell lines were purchased from ATCC or DSMZ and grown at 37° C. with 5% CO2. Human HeLa cells were cultured in complete growth medium (Dulbecco's modified Eagle's medium (DMEM) supplemented with 10% FBS); MCF7 cells were cultured in complete growth medium (Dulbecco's modified Eagle's medium (DMEM) supplemented with 10% FBS and 0.01 mg/ml human recombinant insulin (Sigma Aldrich); Namalwa and Ramos cells were cultured in complete growth medium (RPMI 1640 medium supplemented with 10% FBS); HCT116 and HT29 cells were cultured in complete growth medium (McCoy's 5a Medium supplemented with 10% FBS). For cellular degradation of BRD4 studies cells were seeded in a 12-well plate at 70-80% confluency, allowed to attach overnight, and incubated with the indicated compounds for the indicated time. When indicated, a 15-minute pretreatment with 10 μM pomalidomide, 10 μM VHL298, 10 μM Nutlin3a, 1 μM MG-132 or 1 μM Carfilzomib was performed before the addition of CURE-PROs. For washout studies, after CURE-PRO treatment, media was aspirated and incubated with complete medium for the indicated time before lysis.
as §1
HeLa cells (2.5×10^6) were treated for 4-24 hours with the compounds solubilized in DMSO. After 4 hours, indicated points were washed and cells were left in full growth media. Compounds were added at 10 μM each. Standardized protein samples were electrophoresed and imaged as described in the WES ProteinSimple section above. FIGS. 44 and 45 depict the time-dependence of CURE-PRO-mediated BRD4 degradation with the BRD-E52 ligand (FIG. 44) and BRD-E72 ligand (FIG. 45), both JQ1 derivatives comprising of boronic acid linkers, and the CRBN binding ligands (8046, 8047, and 8066), pomalidomide derivatives comprising diol linkers.
HeLa cells (2.5×10^6) were treated for 24 hours with the compounds solubilized in DMSO. Compounds were added at 100 nM-10 μM each. Standardized protein samples were electrophoresed and imaged as described in the WES ProteinSimple section above. FIG. 46 depicts the concentration-dependence of CURE-PRO-mediated BRD4 degradation and the requirement for monomer dimerization.

MV-4-11 cells = assay: CellTiter-Glo cell viability, MV-4-11 cells; details: monomer alone, MV-4-11, 24 h, 1 nM-100 μM
Method: CellTiter-Glo® 2.0 Cell Viability Assay (Promega) was carried out following the manufacturer's recommendations. Cells were seeded at a density of 1000 cells/well in a white 96 well plates (Corning, #3917) in a total volume of 100 μl with respective monomers, combinations of BRD ligands together with E3 ligase ligands or vehicle control treatment. After a 72 h incubation, 100 ul of the CellTiter-Glo® substrate was added per well and luminescence was read on a Spectramax M5 (Molecular Devices). Dose-response curves were generated using Graphpad Prism software.
MV-4-11 cells (5×10^4) were treated for 24 hours with the sample compounds solubilized in DMSO. The compounds were added at 1 nM-100 μM each. Cellular viability was determined using the CellTiter-Glo® Luminescent Cell Viability Assay (Promega) described above. FIGS. 19-22 depict the CURE-PRO-mediated loss of cellular viability for BRD monomers (JQ1 derivatives comprising of catechol linkers), and CRBN ligand, 8049 (pomalidomide derivatives comprising boronic acid linkers) combined in a 1:1 ratio.
MV-4-11 cells (1×10^4) were treated for 72 hours with the compounds solubilized in DMSO. Compounds were added at 10 nM-100 μM each. Cellular viability was determined using the CellTiter-Glo® Luminescent Cell Viability Assay (Promega) described above. FIGS. 47-54 depict the CURE-PRO-mediated loss of cellular viability for BRD monomers (JQ1 derivatives comprising of boronic acid linkers), and CRBN ligands, 8046, 8047 and 8066 (pomalidomide derivatives comprising diol linkers) combined in a 1:1 ratio.

[5] = 1:1 with VHL ligand 8297, MCF7, 24 h, 1 μM-10 μM each
[6] = 1:1 with VHL ligand 8298, MCF7, 24 h, 1 μM-10 μM each
[7] = c-MYC monomer alone, MCF7, 24 h, 1 μM-10 μM

T1 sequence (P01106 whole entry): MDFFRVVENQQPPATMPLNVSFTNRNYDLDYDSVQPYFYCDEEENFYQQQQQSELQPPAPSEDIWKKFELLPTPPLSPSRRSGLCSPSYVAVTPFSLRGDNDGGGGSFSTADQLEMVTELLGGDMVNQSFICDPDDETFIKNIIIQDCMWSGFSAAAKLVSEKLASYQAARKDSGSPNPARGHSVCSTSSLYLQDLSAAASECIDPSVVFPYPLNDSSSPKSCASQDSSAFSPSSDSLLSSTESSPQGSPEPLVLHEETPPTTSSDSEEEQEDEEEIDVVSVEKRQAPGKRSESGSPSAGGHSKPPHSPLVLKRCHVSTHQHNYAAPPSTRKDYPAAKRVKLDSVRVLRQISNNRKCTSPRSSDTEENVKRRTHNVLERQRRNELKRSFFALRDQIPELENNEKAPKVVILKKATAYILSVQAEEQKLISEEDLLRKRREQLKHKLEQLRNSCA

CCc1ccc(/C=C2\SC(=O)N(CCCc3ccc(O)c(O)c3)C2=O)cc1 [MYC-N5]
c-MYC degradation (c-MYC [1]; [5]): no loss of c-MYC protein was observed
c-MYC degradation (c-MYC [1]; [6]): Degradation is observed; also recorded: caused degradation of c-MYC
c-MYC degradation (c-MYC [1]; [7]): no loss of c-MYC protein was observed
Degradation of C-MYC, combination with CRBN ligand 8049 (c-MYC [2]; Table 10, aromatic 1,2-diol MYC ligand + 8049): √ (A black check mark indicates efficacy of 30% to 70% or higher protein degradation)

O=C1CCC(N2C(=O)c3cccc(CNC(=O)c4ccc(B(O)O)cc4)c3C2=O)C(=O)N1 (centres unmarked) [compound 8048]
expression of Aiolos and Ikaros (Aiolos and Ikaros [3]): largely maintain Aiolos and Ikaros expression levels
expression of Aiolos and Ikaros (Aiolos and Ikaros [4]): largely maintain Aiolos and Ikaros expression levels

CCNC(=O)C[C@@H]1N=C(c2ccc(Sc3ccccc3)cc2)c2cc(OC)ccc2-n2c(C)nnc21 [BRD-E52C, N-ethyl-2-((4S)-8-methoxy-1-methyl-6-(4-(phenylthio)phenyl)-4H-benzo[f][1,2,4]triazolo[4,3-a][1,4]diazepin-4-yl)acetamide]
concentration-dependent BRD4 degradation (BRD4): failed to induce degradation even at 10 μM

CCc1ccc(/C=C2\SC(=O)N(Cc3cccc(O)c3O)C2=O)cc1 [MYC-N2]
c-MYC degradation (c-MYC [1]; [5]): Degradation is observed; also recorded: caused degradation of c-MYC
c-MYC degradation (c-MYC [1]; [6]): no loss of c-MYC protein was observed
c-MYC degradation (c-MYC [1]; [7]): no loss of c-MYC protein was observed
Degradation of C-MYC, combination with CRBN ligand 8048 (c-MYC [2]; Table 10, aromatic 1,2-diol MYC ligand + 8048): √ (A black check mark indicates efficacy of 30% to 70% or higher protein degradation)

O=C1CCC(N2C(=O)c3cccc(CNC(=O)C4C[C@H]5C[C@@H]4[C@H](O)[C@@H]5O)c3C2=O)C(=O)N1 (stereo in doubt) [compound 8066, (1S,4R,5R,6S)—N-((2-(2,6-dioxopiperidin-3-yl)-1,3-dioxoisoindolin-4-yl)methyl)-5,6-dihydroxybicyclo[2.2.1]heptane-2-carboxamide]
expression of Aiolos and Ikaros (Aiolos and Ikaros [3]): largely maintain Aiolos and Ikaros expression levels
expression of Aiolos and Ikaros (Aiolos and Ikaros [4]): largely maintain Aiolos and Ikaros expression levels

O=C1CCC(N2C(=O)c3cccc(CNC(=O)c4cccc(O)c4O)c3C2=O)C(=O)N1 (centres unmarked) [compound 8047, N-((2-(2,6-dioxopiperidin-3-yl)-1,3-dioxoisoindolin-4-yl)methyl)-2,3-dihydroxybenzamide]
expression of Aiolos and Ikaros (Aiolos and Ikaros [3]): largely maintain Aiolos and Ikaros expression levels
expression of Aiolos and Ikaros (Aiolos and Ikaros [4]): largely maintain Aiolos and Ikaros expression levels

O=C1CCC(N2C(=O)c3cccc(CNC(=O)c4cccc(B(O)O)c4)c3C2=O)C(=O)N1 (centres unmarked) [compound 8049]
loss of cellular viability (MV-4-11 cells): little loss of viability was observed
expression of Aiolos and Ikaros (Aiolos and Ikaros [3]): largely maintain Aiolos and Ikaros expression levels
expression of Aiolos and Ikaros (Aiolos and Ikaros [4]): largely maintain Aiolos and Ikaros expression levels

O=C1CCC(N2C(=O)c3cccc(CNC(=O)c4ccc(O)c(O)c4)c3C2=O)C(=O)N1 (centres unmarked) [compound 8046, N-((2-(2,6-dioxopiperidin-3-yl)-1,3-dioxoisoindolin-4-yl)methyl)-3,4-dihydroxybenzamide]
expression of Aiolos and Ikaros (Aiolos and Ikaros [3]): largely maintain Aiolos and Ikaros expression levels
expression of Aiolos and Ikaros (Aiolos and Ikaros [4]): largely maintain Aiolos and Ikaros expression levels
